In ChEMBL document CHEMBL5725348, “Benzimidazole inhibitors of the sodium channel” (2017):

Experiment: Nav1.5 Assay: To assess the potential cardiac liability of compounds at an early stage in the drug discovery process, a Nav1.5 sodium channel screening assay was be performed on Molecular Device's PatchXpress™ automated electrophysiology platform. Under voltage-clamp conditions, Nav1.5 currents were recorded from HEK cells expressing the human Nav1.5 channel in the absence and presence of increasing concentrations of the test compound to obtain an IC50 value. The external recording solution contained (in mM): 90 TEACl, 50 NaCl, 1.8 CaCl, 1 MgCl2, 10 HEPES, 10 glucose, adjusted to pH 7.4 with TEA-OH and to 300 mOsm with sucrose (if necessary), while the internal patch pipette solution contained (in mM): 129 CsF, 2 MgCl2, 11 EGTA, 10 HEPES, 3 Na2ATP adjusted to pH 7.2 with CsOH and to 290 mOsm with sucrose (if necessary). Nav1.5 channel currents were evoked using a cardiac action potential waveform at 1 Hz, digitized at 31.25 kHz and low-pass filtered at 12 kHz.
Settings: HEK293

Point of comparison: `NCCCc1nc2cc(C(F)(F)F)cc(C(F)(F)F)c2[nH]1`, IC50 7.5 µM. Against it:
- NCc1nc2cc(C(F)(F)F)cc(C(F)(F)F)c2[nH]1 — higher, > 10 µM
- O=C1CNCCN1Cc1nc2cc(C(F)(F)F)cc(C(F)(F)F)c2[nH]1 — higher, > 10 µM
- O=C1CNCCN1Cc1nc2cc(C(F)(F)F)c(C(F)(F)F)cc2[nH]1 — higher, > 10 µM
- NCC(=O)NCc1nc2cc(Cl)c(Cl)cc2[nH]1 — higher, > 10 µM
- NCCc1nc2cc(C(F)(F)F)cc(C(F)(F)F)c2[nH]1 — higher, > 10 µM
- CNCc1nc2cc(C(F)(F)F)cc(C(F)(F)F)c2[nH]1 — higher, > 10 µM
- CC(C)(N)Cc1nc2cc(C(F)(F)F)cc(C(F)(F)F)c2[nH]1 — 2.1-fold lower, 3.6 µM
- CC(C)C[C@H](CN)Cc1nc2c(C(F)(F)F)cc(C(F)(F)F)cc2[nH]1 — higher, > 10 µM
- NCC(=O)NCc1nc2cc(C(F)(F)F)cc(C(F)(F)F)c2[nH]1 — higher, > 10 µM
- CC1(NC(=O)CN2CC(Cc3nc4c(C(F)(F)F)cc(C(F)(F)F)cc4[nH]3)C2)CCC1 — higher, > 10 µM
- CC(C)(N)C(=O)NCc1nc2cc(C(F)(F)F)cc(C(F)(F)F)c2[nH]1 — higher, > 10 µM
- FC(F)(F)c1cc(C(F)(F)F)c2nc(CC3CNC3)[nH]c2c1 — higher, > 10 µM
